Earlier results, collected in patent US20200129524A1, “PERSONALIZED CONTRACEPTIVE FORMULATIONS” (Agile Therapeutics, Inc., priority 2017, published 2020).

Biological target: T1, SHBG (Homo sapiens, UniProt P04278)
T1 sequence (P04278 30-402): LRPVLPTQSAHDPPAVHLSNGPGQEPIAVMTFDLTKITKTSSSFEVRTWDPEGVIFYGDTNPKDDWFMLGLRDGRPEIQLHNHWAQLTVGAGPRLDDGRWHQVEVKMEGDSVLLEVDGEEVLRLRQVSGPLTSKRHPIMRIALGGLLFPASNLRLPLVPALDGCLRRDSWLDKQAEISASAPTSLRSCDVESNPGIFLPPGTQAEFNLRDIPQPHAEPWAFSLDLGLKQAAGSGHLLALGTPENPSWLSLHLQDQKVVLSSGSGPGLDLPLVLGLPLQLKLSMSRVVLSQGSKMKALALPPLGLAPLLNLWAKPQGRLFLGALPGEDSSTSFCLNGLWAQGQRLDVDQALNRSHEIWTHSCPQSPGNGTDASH
Settings: testosterone being 100; cited from earlier work

For `C[C@]12CC[C@H]3[C@@H](CCC4=CC(=O)CC[C@@]43C)[C@@H]1CC[C@@H]2O` [testosterone], the “relative binding affinity to SHBG” value is given as 100%.
